Drawing on patent publication US9132130B2, “Purine derivative and antitumor agent using same” (ZENYAKU KOGYO KABUSHIKI KAISHA, priority 2009, dated 2015), this text covers GI50 for 21 compounds.

Common to all, as to assay type: cell-based
Experiment [1] relates to P388 cells (mouse leukemia cells). Briefly: in vitro antitumor activity test, P388 cells, XTT colorimetry. The settings on record: cultured 72 hours. As to the method:
P388 cells (mouse leukemia cells) passaged in the abdominal cavity of DBA/2 mice were extracted with ascitic fluid, and cultured in a RPMI 1640 medium (added with 10% fetal bovine serum, 25 mM HEPES, 0.1 mg/ml kanamycin and 5 μM 2-hydroxyethyldisulfide) at 37° C. in 5% carbon dioxide gas. After culturing for 16 hours, floating P388 cells were made into a single cell suspension of 4×10^4 cells per 1 ml using the same RPMI 1640 medium as given above. The test substances were dissolved in DMSO, then diluted in a RPMI 1640 medium (added with 10% fetal bovine serum, 25 mM HEPES and 0.1 mg/ml kanamycin) and prepared so that the concentrations were 2.0×10^−9 to 2.0×10^−4 M.
0.1 ml of the cell suspension was placed into each well of 96-well microplates, then 0.1 ml of the sample solutions were added, and cultured for 72 hours at 37° C. in 5% carbon dioxide gas.
(§1) Afterwards, the level of growth inhibition at various sample concentrations was obtained using XTT colorimetry, and concentrations at which growth was inhibited by 50% (GI50 values [μM]) were calculated.

The subject of experiment [2] is PC-3 cells (human prostate cancer cells). Kind of experiment: in vitro antitumor activity test, PC-3 cells, XTT colorimetry. The settings on record: PC-3 human prostate cancer cells, cultured 72 hours. How it is done:
(§2) WiDr cells (human colon cancer cells) subcultured in a culture medium composed of a MEM medium added with 10% fetal bovine serum, 25 mM HEPES and 0.1 mg/ml kanamycin under the conditions of 37° C. and 5% carbon dioxide gas were made into single floating cells by treating with trypsin/EDTA, and a single cell suspension of 3×10^4 cells per 1 ml was prepared using the MEM medium (added with 10% fetal bovine serum, 25 mM HEPES and 0.1 mg/ml kanamycin). After dissolving the test compounds in DMSO, they were diluted in a RPMI 1640 medium (added with 10% fetal bovine serum, 25 mM HEPES and 0.1 mg/ml kanamycin) and prepared so that the concentrations were 2.0×10^−9 to 2.0×10^−4 M.
(§3) 0.1 ml of the cell suspension was placed into each well of 96-well microplates, cultured for 24 hours to allow the cells to adhere to the microplates, then 0.1 ml of the sample solutions were added, and cultured for 72 hours at 37° C. in 5% carbon dioxide gas.
as §1
(§4) In addition, cells other than WiDr cells that were used, and the condition for preparing each single cell suspension were as follows.
PC-3 cells (human prostate cancer cells): 2×10^4 cells/ml
(In general: Tetrazolium assays rely on reduction of a dye to a coloured formazan, in cell work by metabolically active cells.)

The subject of experiment [3] is B16F10 cells (mouse melanoma [malignant melanoma] cells). Briefly: in vitro antitumor activity test, B16F10 cells, XTT colorimetry. The conditions noted are these: B16-F10, cultured 72 hours. As to the method: as §2, §3, §1, §4
B16F10 cells (mouse melanoma [malignant melanoma] cells): 1×10^4 cells/ml

Experiment [4] relates to WiDr cells (human colon cancer cells). Briefly: in vitro antitumor activity test, WiDr cells, XTT colorimetry. The settings on record: cultured 72 hours. How it is done:
as §2, §3, §1

Experiment [5] deals with A549 cells (human lung cancer cells). Kind of experiment: in vitro antitumor activity test, A549 cells, XTT colorimetry. The settings on record: cultured 72 hours. As to the method:
as §2, §3, §1, §4
A549 cells (human lung cancer cells): 2×10^4 cells/ml

The term GI50 denotes the concentration at which growth is held to half of that of the control. A low value points to greater sensitivity of the cells.

Structures are written as SMILES.

Turning to `CCc1nc2c(N3CCOCC3)nc(SCc3ccc(OC)c(NC(=O)c4ccco4)c3)nc2n1C` [Compound 55, 8-ethyl-2-[3-(2-furylcarbonylamino)-4-methoxybenzylsulfanyl]-9-methyl-6-morpholino-9H-purine], the GI50 in experiment [1] is 1050 nM; in experiment [2], 780 nM; in experiment [3], 1390 nM; in experiment [4], 1390 nM; in experiment [5] it was 1340 nM.

As for `CCc1nc2c(N3CCOCC3)nc(SCc3ccc(OC)c(C#N)c3)nc2n1C` [Compound 51, 2-(3-cyano-4-methoxybenzylsulfanyl)-8-ethyl-9-methyl-6-morpholino-9H-purine], the GI50 turned out to be 70 nM in experiment [1]; 100 nM in experiment [2]; 380 nM in experiment [3]; 140 nM in experiment [4]; 100 nM in experiment [5].

With `COc1ccc(CSc2nc(-c3c(C)noc3C)c3ncn(C)c3n2)cc1` [Compound 169, 6-(3,5-dimethylisoxazol-4-yl)-2-(4-methoxybenzylsulfanyl)-9-methyl-9H-purine], the GI50 in experiment [1] was below 40 nM; in experiment [2] it was 70 nM; in experiment [3] it was 110 nM; in experiment [4], 80 nM; in experiment [5] it was below 40 nM.

Turning to `C=Cc1cc(CSc2nc(N3CCOCC3)c3nc(CC)n(C)c3n2)ccc1OC` [Compound 79, 8-ethyl-2-(4-methoxy-3-vinylbenzylsulfanyl)-9-methyl-6-morpholino-9H-purine], the GI50 in experiment [1] stood at 1000 nM; in experiment [2] it was 440 nM; in experiment [3], 1500 nM; in experiment [4], 1300 nM; in experiment [5], 1400 nM.

As to `CCN(C)c1nc(SCc2ccc(OC)cc2)nc2c1ncn2C` [Compound 75, 6-(N-ethyl-N-methylamino)-2-(4-methoxybenzylsulfanyl)-9-methyl-9H-purine], the GI50 was determined as 380 nM in experiment [1]; 560 nM in experiment [2]; 380 nM in experiment [3]; 380 nM in experiment [4]; 520 nM in experiment [5].

Consider `CCOc1ccc(CSc2nc(N3C=COCC3)c3ncn(CC)c3n2)cc1[N+](=O)[O-]` [Compound 155, 6-(2,3-dihydro-[1,4]oxadin-4-yl)-9-ethyl-2-(3-nitro-4-ethoxybenzylsulfanyl)-9H-purine], for which the GI50 in experiment [1] amounted to 490 nM; in experiment [2], 1500 nM; in experiment [3] it was 1310 nM; in experiment [4] it was 940 nM; in experiment [5] it was 500 nM.

As for `CCc1nc2c(N3CCN(N=O)CC3)nc(SCc3ccc(OC)c(F)c3)nc2n1C` [Compound 20, 8-ethyl-2-(3-fluoro-4-methoxybenzylsulfanyl)-9-methyl-6-(4-nitrosopiperazin-1-yl)-9H-purine], the GI50 in experiment [1] amounted to 80 nM; in experiment [2] it was 40 nM; in experiment [3] it was 320 nM; in experiment [4], 80 nM; in experiment [5], 160 nM.

As to `COc1ccc(CSc2nc(N3C=COCC3)c3ncn(C)c3n2)cc1F` [Compound 152, 6-(2,3-dihydro-[1,4]oxadin-4-yl)-2-(3-fluoro-4-methoxybenzylsulfanyl)-9-methyl-9H-purine], the 50% growth inhibitory concentration (GI50) in experiment [1], in experiment [2], in experiment [3], in experiment [4] and in experiment [5] was below 40 nM in each case.

Consider `CCN(C)c1nc(SCc2ccc(OC)c(N)c2)nc2c1ncn2C` [Compound 84, 2-(3-amino-4-methoxybenzylsulfanyl)-6-(N-ethyl-N-methylamino)-9-methyl-9H-purine], for which the GI50 is 260 nM in experiment [1]; 980 nM in experiment [2]; 510 nM in experiment [3]; 1900 nM in experiment [4]; 550 nM in experiment [5].

For the compound `COc1ccc(CSc2nc(-n3cccc3)c3ncn(C)c3n2)cc1` [Compound 109, 9-methyl-2-(4-methoxybenzylsulfanyl)-6-(1-pyrrolyl)-9H-purine], the GI50 in experiment [1] came out at 320 nM; in experiment [2] it was 580 nM; in experiment [3] it was 510 nM; in experiment [4], 360 nM; in experiment [5], 570 nM.

On to `CCc1nc2c(N3CCOCC3)nc(SCc3ccc(OC)c(NC(=O)COC)c3)nc2n1C` [Compound 63, 8-ethyl-2-(3-methoxyacetylamino-4-methoxybenzylsulfanyl)-9-methyl-6-morpholino-9H-purine], for which the GI50 in experiment [1] stood at 1500 nM; in experiment [2], 870 nM; in experiment [3], 1900 nM; in experiment [4] it was 3300 nM; in experiment [5], 1600 nM.

`CNc1nc(SCc2ccc(OC)cc2)nc2c1ncn2C` [Compound 26, 2-(4-methoxybenzylsulfanyl)-9-methyl-6-methylamino-9H-purine]: the GI50 came to 70 nM in experiment [1]; 110 nM in experiment [2]; 340 nM in experiment [3]; 80 nM in experiment [4]; 110 nM in experiment [5].

Turning to `CCc1nc2c(N3CCOCC3)nc(SCc3ccc(I)cc3)nc2n1C` [Compound 49, 8-ethyl-2-(4-iodobenzylsulfanyl)-9-methyl-6-morpholino-9H-purine], the GI50 in experiment [1] stood at 290 nM; in experiment [2], 460 nM; in experiment [3], 1340 nM; in experiment [4] it was 390 nM; in experiment [5], 320 nM.

Turning to `CCc1nc2c(N3CCOCC3)nc(SCCCc3ccc(OC)cc3)nc2n1C` [Compound 50, 8-ethyl-2-[3-(4-methoxyphenyl)propylsulfanyl]-9-methyl-6-morpholino-9H-purine], the GI50 in experiment [1] amounted to 380 nM; in experiment [2], 620 nM; in experiment [3], 1430 nM; in experiment [4] it was 1020 nM; in experiment [5], 890 nM.

On to `COc1ccc(CSc2nc(N3C=COCC3)c3ncn(C)c3n2)cc1` [Compound 147, 6-(2,3-dihydro-[1,4]oxadin-4-yl)-2-(4-methoxybenzylsulfanyl)-9-methyl-9H-purine], for which the GI50 in experiment [1] is 40 nM; in experiment [2], 120 nM; in experiment [3] it was 80 nM; in experiment [4] it was 40 nM; in experiment [5], 50 nM.

`COc1ccc(CNc2nc(N3CCOCC3)c3ncn(C)c3n2)cc1` [Compound B, reference compound]: the GI50 in experiment [1], in experiment [2], in experiment [3], in experiment [4] and in experiment [5] was above 10000 nM each time.

Turning to `COc1ccc(CSc2nc(-c3ccc([N+](=O)[O-])cc3)c3ncn(C)c3n2)cc1` [Compound 166, 2-(4-methoxybenzylsulfanyl)-9-methyl-6-(4-nitrophenyl)-9H-purine], the GI50 in experiment [1] worked out at 280 nM; in experiment [2], 1390 nM; in experiment [3] it was 1550 nM; in experiment [4] it was 820 nM; in experiment [5], 670 nM.

As for `CCc1ccc(CSc2nc(N3CCOCC3)c3nc(CC)n(C)c3n2)cc1` [Compound 12, 8-ethyl-2-(4-ethylbenzylsulfanyl)-9-methyl-6-morpholino-9H-purine], the concentration for 50% growth inhibition (GI50) in experiment [1] came out at 1250 nM; in experiment [2], 850 nM; in experiment [3], 3910 nM; in experiment [4], 1240 nM; in experiment [5], 1890 nM.

Take `COc1ccc(CSc2nc(-n3ccnc3)c3ncn(C)c3n2)cc1` [Compound 110, 6-(imidazol-1-yl)-2-(4-methoxybenzylsulfanyl)-9-methyl-9H-purine]: the GI50 is 470 nM in experiment [1]; 1400 nM in experiment [2]; 1430 nM in experiment [3]; 790 nM in experiment [4]; 950 nM in experiment [5].

As to `C/C=C/c1nc(SCc2ccc(OC)c(N)c2)nc2c1ncn2C` [Compound 173, 2-(3-amino-4-methoxybenzylsulfanyl)-9-methyl-6-(1-trans-propenyl)-9H-purine], the GI50 in experiment [1] turned out to be 90 nM; in experiment [2] it was 380 nM; in experiment [3], 250 nM; in experiment [4], 1510 nM; in experiment [5] it was 160 nM.

In the case of `COc1ccc(CSc2nc(-c3ccsc3)c3ncn(C)c3n2)cc1` [Compound 168, 2-(4-methoxybenzylsulfanyl)-9-methyl-6-(3-thienyl)-9H-purine], the GI50 in experiment [1] is 140 nM; in experiment [2], 320 nM; in experiment [3] it was 210 nM; in experiment [4] it was 140 nM; in experiment [5] it was 220 nM.
